{
  "source": "patent US4622317A",
  "about": "“Treatment of skin over androgenicity using compositions containing pregnenolone” (priority 1985, dated 1986)",
  "key": {"[1]": {"system": "flank organ of female hamsters", "conditions": "topical, 5 days/week for 2 weeks; cited from earlier work"}, "[2]": {"system": "skin / body of acne patients", "conditions": "cited from earlier work; for skin irritation and peeling: topical application"}, "[3]": {"system": "female hamster flank organs", "experiment": "stimulation of female hamster flank organs by topical DHA", "type": "in vivo", "conditions": "12 μg, 60 μg, 120 μg to right side, 7 days/week for 6 weeks, female hamsters", "text": "(§1) The effects of hormones and hormonally active substances on sebaceous glands can also be evaluated using the Syrian hamster flank organs as an animal model. The results of experiments using hamsters are valuable inasmuch as they can provide in vivo confirmation of the in vitro experiments like those described above using rat preputial gland. The flank organs, also called the costovertebral spot or the costovertebral organ, are sebaceous structures located on each flank of the animal. Like the sebaceous glands of the human and the preputial gland of the rat they are androgen dependent (Voigt and Hsia, 1973; Gomez and Frost, 1969; Frost and Gomez, 1973).\nThe organ in the mature male hamster measures approximately 8 mm in diameter, is heavily pigmented and is covered with coarse dark hairs (Voigt and Hsia, 1973). The organ of the female animal is undeveloped, measuring about 2 mm in diameter, lightly pigmented, without dark hairs, and is at times difficult to see. The anatomical and histological changes in this organ in response to androgens have been described by Hamilton and Montagna (1950).\nBefore testing the anti-androgenic properties of pregnenolone on hamster flank organs and relying on the results, a centrally important question therefore needed to be answered--Could DHA be shown to stimulate growth in the flank organs? […]"}, "[4]": {"conditions": "background statement; cited from earlier work"}, "skin": {"system": "skin", "conditions": "studies by the inventor and other laboratories; cited from earlier work"}, "[5]": {"system": "3β-hydroxysteroid dehydrogenase Δ^4-5 -isomerase (3βHSD)", "experiment": "in vitro inhibition of 3βHSD conversion of DHA in rat preputial gland homogenate", "type": "biochemical, rat (female Sprague-Dawley)", "conditions": "rat preputial gland homogenate (2 mg protein), 1,2-^3 H-DHA + 100 nmoles DHA, 37° C.; four separate incubations; inhibitor concentration not given", "procedure": "To assess the androgen inhibiting activity of pregnenolone, rat preputial gland was employed to investigate the in vitro androgenic action of DHA. […] A pair of the glands are situated in the prepuce of the rat of either sex weighing between 125-200 mg in an average 200 g rat, being slightly larger in the male animal. The animals employed were female Sprague-Dawley rats, 10-12 weeks old and weighing 225-300 g.\nThe experimental format, stated broadly, was to excise preputial glands from rats and prepare a homogenate therefrom. […] The metabolites were quantitated by removal from the thin layer plate and counting in a scintillation counter. By determining the extent of metabolite formation, the extent of inhibition of 3βHSD could be correspondingly determined. […]\nExperiments were initially conducted to ensure that DHA and its metabolites could be separated chromatographically. […] The position of the steroid can be readily traced with this method. […] Elution and quantitative evaluation of steroids can be effected after removal of the iodine. […] For quantitation the plates were then scraped in 1 cm sections for radioassay of ^3 H in a Packard Tri-Carb liquid scintillation counter. Silica gel H blanks and ^3 H-standards (Packard Instrument Co.) were also counted. […]"}, "[6]": {"system": "3βHSD (female hamster flank organs)", "experiment": "in vivo inhibition of conversion of 1,2-^3 H-DHA to metabolites in flank organs of female hamsters", "set-up": "species or system female Syrian Golden Hamster", "conditions": "topical 1200 μg/0.1 ml acetone to each flank organ for 3 days", "text": "as §1\nHamster flank organs were accordingly used to test in vivo the androgenic inhibitory properties of pregnenolone.\nFemale Syrian Golden Hamsters were used in this experiment. […]\nOn the afternoon of day 3, an intracardial injection of 1,2-^3 H-DHA (5μCi/0.1 ml saline buffer solution) was given to both experimental groups anesthetized with ether. […] Each organ was then placed in a 16 mm×150 mm test tube containing methanol and was homogenized, extracted and analyzed for steroid metabolites by separating the metabolites using thin layer chromatography as described above, scraping the thus separated metabolites from the thin layer plates, and quantitating using a scintillation counter. […]\nResults are shown in FIG. 2 expressed as DPM/mg tissue."}, "acne vulgaris": {"system": "acne vulgaris", "type": "in vivo, human", "procedure": "The following experiment was conducted and is a typical trial. In a double-blind clinical trial 23 patients with acne vulgaris volunteered to participate. Fifteen patients (11 females and 4 males) were given a 1% solution of pregnenolone dissolved in isopropanol containing 1% glycerol, and 8 patients (5 females and 3 males) were given a 1% solution of glycerol in isopropanol. Neither the patients nor the attending dermatologist knew whether or not the dispensed solution contained pregnenolone. The patients were instructed to stop using their previous medications for two weeks and then to apply the given solution to their faces twice daily. They were reexamined biweekly."}, "[7]": {"experiment": "solubility of pregnenolone", "type": "physicochemical"}, "[8]": {"conditions": "1% pregnenolone in isopropanol containing 1% glycerol, twice daily, twelve weeks, 4 of 15 patients"}},
  "data": [
    {"smiles": "C[C@]12CCC(=O)C=C1CC[C@@H]1[C@@H]2CC[C@@]2(C)[C@H]1CC[C@]2(C)O", "note": "[methyltestosterone]", "values": [
      {"measurement": "sebaceous gland growth and pigmentation of flank organ", "setting": "[1]", "value": "unilateral stimulation of sebaceous gland growth and pigmentation"}
    ]},
    {"smiles": "CC1=C(/C=C/C(C)=C/C=C/C(C)=C/C(=O)O)C(C)(C)CCC1", "note": "[retinoic acid]", "values": [
      {"measurement": "skin irritation and peeling", "setting": "[2]", "value": "irritates the skin and causes the skin to peel"}
    ]},
    {"smiles": "C[C@]12CCC(=O)C[C@@H]1CC[C@@H]1[C@@H]2CC[C@]2(C)[C@@H](O)CC[C@@H]12", "note": "[DHT, dihydrotestosterone]", "values": [
      {"measurement": "sebaceous gland growth and pigmentation of flank organ", "setting": "[1]", "value": "unilateral stimulation of sebaceous gland growth and pigmentation"}
    ]},
    {"smiles": "C[C@]12CCC(=O)C=C1CC[C@@H]1[C@@H]2CC[C@]2(C)C(=O)CC[C@@H]12", "note": "[androstenedione, Δ^4 -androstenedione]", "values": [
      {"measurement": "sebaceous gland growth and pigmentation of flank organ", "setting": "[1]", "value": "unilateral stimulation of sebaceous gland growth and pigmentation"}
    ]},
    {"smiles": "C[C@]12CC[C@H](O)C[C@@H]1CC[C@@H]1[C@@H]2CC[C@]2(C)C(=O)CC[C@@H]12", "note": "[epiandrosterone]", "values": [
      {"measurement": "sebaceous gland growth and pigmentation of flank organ", "setting": "[1]", "value": "did not cause flank organ growth or increased pigmentation"}
    ]},
    {"smiles": "CC(=O)[C@H]1CC[C@H]2[C@@H]3CCC4=CC(=O)CC[C@]4(C)[C@H]3CC[C@]12C", "note": "[progesterone]", "values": [
      {"measurement": "sebaceous gland growth and pigmentation of flank organ", "setting": "[1]", "value": "did not cause flank organ growth or increased pigmentation"}
    ]},
    {"smiles": "CC1=C(/C=C/C(C)=C/C=C/C(C)=C\\C(=O)O)C(C)(C)CCC1", "note": "[Accutane, 13-Cis retinoic acid]", "values": [
      {"measurement": "blood lipids and liver toxicity", "setting": "[2]; internal use", "value": "alters blood lipids and causes liver toxicity"}
    ]},
    {"smiles": "C[C@]12CC[C@@H](O)C[C@@H]1CC[C@@H]1[C@@H]2CC[C@]2(C)C(=O)CC[C@@H]12", "note": "[androsterone]", "values": [
      {"measurement": "sebaceous gland growth and pigmentation of flank organ", "setting": "[1]", "value": "did not cause flank organ growth or increased pigmentation"}
    ]},
    {"smiles": "C[C@]12CC[C@H]3[C@@H](CCC4=CC(=O)CC[C@@]43C)[C@@H]1CC[C@@H]2O", "note": "[testosterone]", "values": [
      {"measurement": "sebaceous gland growth and pigmentation of flank organ", "setting": "[1]", "value": "unilateral stimulation of sebaceous gland growth and pigmentation"}
    ]},
    {"smiles": "C[C@]12CC[C@H](O)CC1=CC[C@@H]1[C@@H]2CC[C@]2(C)C(=O)CC[C@@H]12", "note": "[DHA, dehydroepiandrosterone]", "values": [
      {"measurement": "stimulation of flank organs", "setting": "[3]", "value": "not only a local stimulation, but stimulation of both flank organs, hence systemic stimulation"},
      {"measurement": "androgenic / hormonal activity", "setting": "[4]", "value": "only weak androgenic activity"},
      {"measurement": "metabolism in the skin", "setting": "skin", "value": "readily metabolized in the skin to form potent androgenic steroids"}
    ]},
    {"smiles": "O=C(OOC(=O)c1ccccc1)c1ccccc1", "note": "[benzoyl peroxide]", "values": [
      {"measurement": "skin irritation and peeling", "setting": "[2]", "value": "irritates the skin and causes the skin to peel"}
    ]},
    {"smiles": "CC(=O)[C@H]1CC[C@H]2[C@@H]3CC=C4C[C@@H](O)CC[C@]4(C)[C@H]3CC[C@]12C", "note": "[pregnenolone, Δ^5-pregnene-3β-ol-20-one]", "values": [
      {"measurement": "inhibition of 3βHSD for DHA (percentage of total Δ^4 -3-keto product formed in absence of inhibitor)", "setting": "[5]", "value": "91-92%"},
      {"measurement": "total metabolites converted from 1,2-^3 H-DHA, treated versus control", "setting": "[6]; DHA-stimulated, 1 hour after intracardial ^3 H-DHA (5 μCi)", "value": "Significant differences (P<0.01)"},
      {"measurement": "formation of testosterone, DHT and androstanediol, control versus treated", "setting": "[6]; DPM/mg tissue in FIG. 2", "value": "Control hamsters, not treated with inhibitor, show greater formation of testosterone, DHT and androstanediol"},
      {"measurement": "patients with reduction of oiliness", "setting": "acne vulgaris; 1% pregnenolone in isopropanol containing 1% glycerol, twice daily, twelve weeks, 2 of 15 patients", "value": 13, "unit": "%"},
      {"measurement": "patients with no change in lesions or oiliness", "setting": "acne vulgaris; [8]", "value": 26, "unit": "%"},
      {"measurement": "patients with slight reduction of the number of lesions and a reduction in the oiliness of the skin", "setting": "acne vulgaris; [8]", "value": 26, "unit": "%"},
      {"measurement": "patients with definite improvement, with reduction in the size and number of lesions", "setting": "acne vulgaris; 1% pregnenolone in isopropanol containing 1% glycerol, twice daily, twelve weeks, 5 of 15 patients", "value": 33, "unit": "%"},
      {"measurement": "beneficial effect in acne; prevention of new lesions", "setting": "acne vulgaris; conclusion of the trial, continued use", "value": "beneficial effect in the treatment of acne, and that continued use of pregnenolone prevents the development of new lesions"},
      {"measurement": "irritation or discomfort caused by topical application", "setting": "acne vulgaris; human, in vivo", "value": "no complaint of irritation or discomfort"},
      {"measurement": "efficacy and acceptability compared with previous medications (patients' claims)", "setting": "acne vulgaris; patients who had used other medications previously", "value": "more effective and more acceptable"},
      {"measurement": "solubility in alcohols", "setting": "[7]; alcohols, such as isopropanol or mixtures with longer (C4 -C10) alkane or alkene chains", "value": "soluble"},
      {"measurement": "solubility in water", "setting": "[7]; water", "value": "insoluble in water"},
      {"measurement": "androgenic / hormonal activity", "setting": "[4]", "value": "no known hormonal activity of its own"}
    ]}
  ]
}
